Measured values as given in the NIST ThermoML archive (doi:10.1016/j.jct.2004.01.003).
Numbers after ± are expanded uncertainties.

Assay: mn = molality of the nth substance listed, in mol/kg
Conditions: 350 kPa, Liquid

O=[N+]([O-])[O-].O=[N+]([O-])[O-].[Ba+2] [barium dinitrate] + O
apparent molar volume (278.15 K, m1 = 0.02026): 3.67e-05 ± 2.7e-06 m3/mol | apparent molar volume (278.15 K, m1 = 0.0208): 3.55e-05 ± 1.8e-06 m3/mol | apparent molar volume (278.15 K, m1 = 0.03085): 3.91e-05 ± 1.4e-06 m3/mol | apparent molar volume (278.15 K, m1 = 0.0401): 3.99e-05 ± 1e-06 m3/mol | apparent molar volume (278.15 K, m1 = 0.05028): 3.81e-05 ± 3.6e-06 m3/mol | apparent molar volume (278.15 K, m1 = 0.07046): 4.19e-05 ± 2.6e-06 m3/mol | apparent molar volume (278.15 K, m1 = 0.1005): 4.18e-05 ± 1.9e-06 m3/mol | apparent molar volume (278.15 K, m1 = 0.1931): 4.43e-05 ± 9e-07 m3/mol | apparent molar volume (283.15 K, m1 = 0.02026): 3.99e-05 ± 2.4e-06 m3/mol | apparent molar volume (283.15 K, m1 = 0.0208): 3.77e-05 ± 1.1e-06 m3/mol | apparent molar volume (283.15 K, m1 = 0.03085): 4.13e-05 ± 1.5e-06 m3/mol | apparent molar volume (283.15 K, m1 = 0.0401): 4.27e-05 ± 1e-06 m3/mol | apparent molar volume (283.15 K, m1 = 0.05028): 4.16e-05 ± 2.5e-06 m3/mol | apparent molar volume (283.15 K, m1 = 0.07046): 4.41e-05 ± 1.9e-06 m3/mol | apparent molar volume (283.15 K, m1 = 0.1005): 4.44e-05 ± 1.5e-06 m3/mol | apparent molar volume (283.15 K, m1 = 0.1931): 4.63e-05 ± 9e-07 m3/mol | apparent molar volume (288.15 K, m1 = 0.02026): 4.18e-05 ± 1.6e-06 m3/mol | apparent molar volume (288.15 K, m1 = 0.0208): 4.07e-05 ± 9e-07 m3/mol | apparent molar volume (288.15 K, m1 = 0.03085): 4.28e-05 ± 1.3e-06 m3/mol | apparent molar volume (288.15 K, m1 = 0.0401): 4.4e-05 ± 1e-06 m3/mol | apparent molar volume (288.15 K, m1 = 0.05028): 4.39e-05 ± 1.4e-06 m3/mol | apparent molar volume (288.15 K, m1 = 0.07046): 4.53e-05 ± 1.2e-06 m3/mol | apparent molar volume (288.15 K, m1 = 0.1005): 4.59e-05 ± 1e-06 m3/mol | apparent molar volume (288.15 K, m1 = 0.1931): 4.77e-05 ± 9e-07 m3/mol | apparent molar volume (298.15 K, m1 = 0.02026): 4.32e-05 ± 2.1e-06 m3/mol | apparent molar volume (298.15 K, m1 = 0.0208): 4.44e-05 ± 1e-06 m3/mol | apparent molar volume (298.15 K, m1 = 0.03085): 4.64e-05 ± 1.1e-06 m3/mol | apparent molar volume (298.15 K, m1 = 0.0401): 4.8e-05 ± 1.2e-06 m3/mol | apparent molar volume (298.15 K, m1 = 0.05028): 4.82e-05 ± 9e-07 m3/mol | apparent molar volume (298.15 K, m1 = 0.07046): 4.84e-05 ± 9e-07 m3/mol | apparent molar volume (298.15 K, m1 = 0.1005): 4.9e-05 ± 9e-07 m3/mol | apparent molar volume (298.15 K, m1 = 0.1931): 5.08e-05 ± 9e-07 m3/mol | apparent molar volume (308.15 K, m1 = 0.02026): 4.53e-05 ± 1.6e-06 m3/mol | apparent molar volume (308.15 K, m1 = 0.0208): 4.61e-05 ± 1e-06 m3/mol | apparent molar volume (308.15 K, m1 = 0.03085): 4.89e-05 ± 1.1e-06 m3/mol | apparent molar volume (308.15 K, m1 = 0.0401): 5.05e-05 ± 9e-07 m3/mol | apparent molar volume (308.15 K, m1 = 0.05028): 5.07e-05 ± 9e-07 m3/mol | apparent molar volume (308.15 K, m1 = 0.07046): 5.07e-05 ± 9e-07 m3/mol | apparent molar volume (308.15 K, m1 = 0.1005): 5.12e-05 ± 9e-07 m3/mol | apparent molar volume (308.15 K, m1 = 0.1931): 5.3e-05 ± 8e-07 m3/mol | apparent molar volume (318.15 K, m1 = 0.02026): 4.89e-05 ± 1.6e-06 m3/mol | apparent molar volume (318.15 K, m1 = 0.0208): 4.77e-05 ± 2.9e-06 m3/mol | apparent molar volume (318.15 K, m1 = 0.03085): 4.97e-05 ± 1.4e-06 m3/mol | apparent molar volume (318.15 K, m1 = 0.0401): 5.24e-05 ± 9e-07 m3/mol | apparent molar volume (318.15 K, m1 = 0.05028): 5.25e-05 ± 1e-06 m3/mol | apparent molar volume (318.15 K, m1 = 0.07046): 5.26e-05 ± 9e-07 m3/mol | apparent molar volume (318.15 K, m1 = 0.1005): 5.27e-05 ± 9e-07 m3/mol | apparent molar volume (318.15 K, m1 = 0.1931): 5.48e-05 ± 8e-07 m3/mol | apparent molar volume (328.15 K, m1 = 0.02026): 5.14e-05 ± 1.1e-06 m3/mol | apparent molar volume (328.15 K, m1 = 0.0208): 5.01e-05 ± 1.2e-06 m3/mol | apparent molar volume (328.15 K, m1 = 0.03085): 5.17e-05 ± 1.1e-06 m3/mol | apparent molar volume (328.15 K, m1 = 0.0401): 5.39e-05 ± 9e-07 m3/mol | apparent molar volume (328.15 K, m1 = 0.05028): 5.38e-05 ± 1.1e-06 m3/mol | apparent molar volume (328.15 K, m1 = 0.07046): 5.39e-05 ± 1e-06 m3/mol | apparent molar volume (328.15 K, m1 = 0.1005): 5.38e-05 ± 9e-07 m3/mol | apparent molar volume (328.15 K, m1 = 0.1931): 5.57e-05 ± 8e-07 m3/mol | apparent molar volume (338.15 K, m1 = 0.02026): 5.31e-05 ± 1.9e-06 m3/mol | apparent molar volume (338.15 K, m1 = 0.0208): 5.15e-05 ± 1.1e-06 m3/mol | apparent molar volume (338.15 K, m1 = 0.03085): 5.29e-05 ± 1.2e-06 m3/mol | apparent molar volume (338.15 K, m1 = 0.0401): 5.46e-05 ± 9e-07 m3/mol | apparent molar volume (338.15 K, m1 = 0.05028): 5.43e-05 ± 1.2e-06 m3/mol | apparent molar volume (338.15 K, m1 = 0.07046): 5.46e-05 ± 1e-06 m3/mol | apparent molar volume (338.15 K, m1 = 0.1005): 5.47e-05 ± 9e-07 m3/mol | apparent molar volume (338.15 K, m1 = 0.1931): 5.66e-05 ± 8e-07 m3/mol | apparent molar volume (348.15 K, m1 = 0.02026): 5.4e-05 ± 2.7e-06 m3/mol | apparent molar volume (348.15 K, m1 = 0.0208): 5.21e-05 ± 9e-07 m3/mol | apparent molar volume (348.15 K, m1 = 0.03085): 5.35e-05 ± 1.2e-06 m3/mol | apparent molar volume (348.15 K, m1 = 0.0401): 5.52e-05 ± 9e-07 m3/mol | apparent molar volume (348.15 K, m1 = 0.05028): 5.49e-05 ± 1e-06 m3/mol | apparent molar volume (348.15 K, m1 = 0.07046): 5.51e-05 ± 9e-07 m3/mol | apparent molar volume (348.15 K, m1 = 0.1005): 5.52e-05 ± 9e-07 m3/mol | apparent molar volume (348.15 K, m1 = 0.1931): 5.71e-05 ± 9e-07 m3/mol | apparent molar volume (358.15 K, m1 = 0.02026): 5.5e-05 ± 2.1e-06 m3/mol | apparent molar volume (358.15 K, m1 = 0.0208): 5.21e-05 ± 9e-07 m3/mol | apparent molar volume (358.15 K, m1 = 0.03085): 5.38e-05 ± 1.1e-06 m3/mol | apparent molar volume (358.15 K, m1 = 0.0401): 5.49e-05 ± 1.1e-06 m3/mol | apparent molar volume (358.15 K, m1 = 0.05028): 5.53e-05 ± 1.3e-06 m3/mol | apparent molar volume (358.15 K, m1 = 0.07046): 5.51e-05 ± 1.1e-06 m3/mol | apparent molar volume (358.15 K, m1 = 0.1005): 5.54e-05 ± 1e-06 m3/mol | apparent molar volume (358.15 K, m1 = 0.1931): 5.73e-05 ± 8e-07 m3/mol | apparent molar volume (368.15 K, m1 = 0.02026): 4.76e-05 ± 8e-06 m3/mol | apparent molar volume (368.15 K, m1 = 0.0208): 5.17e-05 ± 9e-07 m3/mol | apparent molar volume (368.15 K, m1 = 0.03085): 5.39e-05 ± 1.4e-06 m3/mol | apparent molar volume (368.15 K, m1 = 0.0401): 5.44e-05 ± 9e-07 m3/mol | apparent molar volume (368.15 K, m1 = 0.05028): 5.5e-05 ± 9e-07 m3/mol | apparent molar volume (368.15 K, m1 = 0.07046): 5.46e-05 ± 8e-07 m3/mol | apparent molar volume (368.15 K, m1 = 0.1005): 5.5e-05 ± 8e-07 m3/mol | apparent molar volume (368.15 K, m1 = 0.1931): 5.71e-05 ± 9e-07 m3/mol
